Activity calls are given as the source filed them. No cut-off for these calls is given here.
Key:
[1] = molecular target: T1, Acetylcholine receptor subunit beta-like 2 (Drosophila melanogaster, UniProt P25162); assay: Displacement of [3H]IMI from nicotinic acetylcholine receptor in Drosophila melanogaster head membrane after 90 min by filter binding assay
T1 sequence (P25162 whole entry): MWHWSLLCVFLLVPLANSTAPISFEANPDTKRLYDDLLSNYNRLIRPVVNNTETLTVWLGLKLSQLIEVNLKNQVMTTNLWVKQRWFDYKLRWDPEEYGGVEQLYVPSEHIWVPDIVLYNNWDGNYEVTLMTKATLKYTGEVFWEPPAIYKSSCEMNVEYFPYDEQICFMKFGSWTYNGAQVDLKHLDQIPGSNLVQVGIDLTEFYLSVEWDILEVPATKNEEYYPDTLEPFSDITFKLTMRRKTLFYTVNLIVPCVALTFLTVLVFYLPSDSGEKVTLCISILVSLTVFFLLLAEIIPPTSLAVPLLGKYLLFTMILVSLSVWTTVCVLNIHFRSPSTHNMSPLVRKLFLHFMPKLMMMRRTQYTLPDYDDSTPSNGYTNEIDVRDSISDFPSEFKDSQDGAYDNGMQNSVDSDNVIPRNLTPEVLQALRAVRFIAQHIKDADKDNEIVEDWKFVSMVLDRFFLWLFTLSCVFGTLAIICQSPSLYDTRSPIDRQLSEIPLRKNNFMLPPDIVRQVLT

[2] = Displacement of [3H]IMI from nicotinic acetylcholine receptor in Myzus persicae (green peach aphid) whole body membrane after 90 min by filter binding assay
[3] = molecular target: T2, Nicotinic acetylcholine receptor alpha 5 subunit (Musca domestica, UniProt A9XFY4); assay: Displacement of [3H]IMI from nicotinic acetylcholine receptor in Musca domestica (house fly) head membrane after 90 min by filter binding assay
T2 sequence (A9XFY4 whole entry): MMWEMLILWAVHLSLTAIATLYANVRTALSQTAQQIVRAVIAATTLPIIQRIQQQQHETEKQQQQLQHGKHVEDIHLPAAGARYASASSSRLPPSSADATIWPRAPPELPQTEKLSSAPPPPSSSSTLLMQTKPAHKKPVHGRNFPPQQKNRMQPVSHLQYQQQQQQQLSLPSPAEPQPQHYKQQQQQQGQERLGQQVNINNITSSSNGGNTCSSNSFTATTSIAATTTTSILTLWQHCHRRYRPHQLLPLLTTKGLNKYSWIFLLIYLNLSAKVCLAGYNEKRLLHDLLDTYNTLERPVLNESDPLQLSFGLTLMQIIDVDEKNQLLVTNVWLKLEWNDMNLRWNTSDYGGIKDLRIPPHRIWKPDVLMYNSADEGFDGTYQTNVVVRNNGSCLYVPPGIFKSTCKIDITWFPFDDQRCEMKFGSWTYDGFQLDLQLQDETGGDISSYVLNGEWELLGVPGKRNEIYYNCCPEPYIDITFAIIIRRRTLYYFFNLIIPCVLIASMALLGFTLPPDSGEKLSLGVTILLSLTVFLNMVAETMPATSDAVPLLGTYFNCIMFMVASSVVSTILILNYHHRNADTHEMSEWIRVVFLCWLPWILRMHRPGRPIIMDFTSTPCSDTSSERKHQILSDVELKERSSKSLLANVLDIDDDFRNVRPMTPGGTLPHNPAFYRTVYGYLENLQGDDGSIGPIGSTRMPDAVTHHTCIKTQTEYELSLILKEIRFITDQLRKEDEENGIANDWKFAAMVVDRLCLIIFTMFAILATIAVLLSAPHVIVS

[4] = molecular target: T3, Acetylcholine receptor subunit beta-like 2 (Drosophila melanogaster) (UniProt P25162); assay: Competitive inhibition of nicotinic acetylcholine receptor in Drosophila melanogaster head membrane using [3H]IMI as substrate incubated for 5 min prior to substrate addition measured after 90 min by Sctachard plot analysis
T3 sequence (whole entry): T1 sequence (P25162 whole entry)

Myzus persicae = assay: Competitive inhibition of nicotinic acetylcholine receptor in Myzus persicae (green peach aphid) whole body membrane using [3H]IMI as substrate incubated for 5 min prior to substrate addition measured after 90 min by Sctachard plot analysis

Structure (SMILES)	IC50 [1] [µM]	IC50 [2] [µM]	IC50 [3] [µM]	inhibition [4]	inhibition (Myzus persicae)
C/N=C(\NCc1ccc(Cl)nc1)N[N+](=O)[O-]	0.0074	0.015	0.0071		
CN1CN(C)/C(=N\[N+](=O)[O-])N(Cc2cnc(Cl)s2)C1	> 1	> 1			
CCN(Cc1cnc(Cl)s1)/C(=C/[N+](=O)[O-])NC	0.16	0.15			
CN1CN(C)/C(=N\[N+](=O)[O-])N(Cc2ccc(Cl)nc2)C1	> 1	> 1			
C/C(=N\C#N)N(C)Cc1cnc(Cl)s1	0.154	0.065			
N#C/N=C1\SCCN1Cc1cnc(Cl)s1	0.094	0.056			
O=[N+]([O-])/N=C1\NCOCN1Cc1ccc(Cl)nc1	0.022	0.013	0.014		
O=[N+]([O-])C=C1NCCCS1	4.7	3.5			
C/C(=N\C#N)N(C)Cc1ccc(Cl)nc1 [ACETAMIPRID]	0.0083	0.01			
CN/C(=N\[N+](=O)[O-])NCc1cnc(Cl)s1 [CLOTHIANIDINE]	0.0022	0.0092	0.0018	Active	Active
O=[N+]([O-])/N=C1\NCOCN1Cc1cnc(Cl)s1 [DESMETHYLTHIAMETHOXAM]	0.02	0.01	0.016	Active	Active
CN/C(=N/CC1CCOC1)N[N+](=O)[O-] (stereo unspecified) [DINOTEFURAN]	5				
O=[N+]([O-])/N=C1\NCCN1Cc1ccc(Cl)nc1 [IMIDACLOPRID]	0.0023	0.0031	0.0026		
O=[N+]([O-])/N=C1\NCCN1Cc1cnc(Cl)s1 [IMIDACLOTHIZ]	0.017	0.021	0.012		
CCN(Cc1ccc(Cl)nc1)/C(=C/[N+](=O)[O-])NC [NITENPYRAM]	0.011	0.021			
N#C/N=C1\SCCN1Cc1ccc(Cl)nc1 [THIACLOPRID]	0.0075	0.0034			

— ChEMBL document CHEMBL3045369 (J Neurochem, 2000)
